The source of these data is publication PMC2362735, “New semisynthetic vinca alkaloids: chemical, biochemical and cellular studies” (British Journal of Cancer, 1999).

One data set concerns tubulin. Kind of data set: Taxol-induced tubulin polymerization, turbidity at 350 nm. The format is biochemical, calf. As to conditions: taxol-induced assembly, MES buffer pH 6.8, 37C; average of three independent measurements; read-out: Anti-tubulin effect, turbidity at 350 nm, IC50. The source says: (§1) The numerous antimitotic drugs already developed and therapeu- tically used for a large number of pathologies belong to different classes based on their chemical structure and other distinctive features. Antimitotic drugs usually target the tubulin/microtubule network of the cytoskeleton that is formed by assembly of cyto- plasmic tubulin dimers. The stability of the different microtubular structures varies considerably; some of their functions depend on their lability. The lability is augmented by the extreme sensitivity to various drugs. Several synthetic and natural compounds interact specifically with tubulin and/or microtubule, fundamentally destroying its dynamic character and leading to cell death. […] Because of their extensive clinical use, it is important to synthesize additional agents having at least the same biological activity. […] Nevertheless, it is unclear yet how the anti-calmodulin activity of these drugs is related to their desired and undesired pharmacological effects. […] The synthesis of the KAR derivatives are presented. […] Taxol, GTP and trifluoperazine were purchased from Sigma. All organic reagents for synthesis of the new compounds were obtained from Aldrich and were of the highest grade. All other chemicals were reagent grade commercial preparations. […] Tubulin was stored in 1 M sucrose, 10 mM sodium phosphate buffer, 0.5 mM magnesium chloride and 0.1 mM GTP, pH 7.0, at -80C and dialysed against the appropriate buffer before use. […] PFK, aldolase and glycerol-3-phosphate dehydrogenase- triosephosphate isomerase purified from rabbit skeletal muscle were purchased in ammonium sulphate suspensions from Sigma or Boehringer. The enzyme suspensions were centrifuged at 10 000g for 5 min. The pellets were suspended in the appropriate buffer, then the enzymes were gel filtered or dialysed in the same buffer to remove ammonium sulphate. […] (Figure 1B; R1 , CH3; R2 , CH2 CH2 Cl). […] After 2 h incubation at room temperature, 200 ml dried toluene was added to the reaction mixture. […] The mixture was stirred for 30 min. After separation of the organic phase, it was washed with water (3 x 30 ml) and dried with potassium sulphate and evaporated on a water bath of 35-40C at 20-27 hPa. The resulting material was chromatographed on silica gel (500 g, bead size of 0.040- 0.063 mm) column (30 mm x 500 mm) using ethyl acetate/ethanol (9:1) mixture as eluent. […] The mixture was kept for 4 h at room temperature and then evaporated on a water bath at 40C under a vacuum of 80 hPa to a final volume of 5-6 ml. […] (Figure 1B, R1 , CHO; R2 , CH2 CH2 Cl). […] Synthesis of KAR-4 [3-allyl-2,4-dioxo-3,5-spiro-oxazolidino- 4-deacetoxy-vinblastine] (Figure 1B; R1 , CH3; R2 , CH2 CH=CH2 ). […] NMR measurements were carried out on a Varian Unity plus-500 instrument (500 MHz for 1H and 125 MHz for 13C) in DMSO. Chemical shifts were determined relative to dTMS = 0.00 p.p.m. 1H and 13C signal assignments were verified by a concerted use of two-dimensional 1H-1H and 1H-13C shift correlation methods (DQFCOSY, HSQC, HMBC) and NOESY experiments. The gradient-enhanced DQFCOSY, HSQC, HMBC and NOESY experiments were recorded by using the standard spectrometer software package. A mixing time of tmix = 0.5 s was used for the NOESY experiments.

The next data set addresses T1, calmodulin (Bos taurus, UniProt P62157).
T1 construct: Calmodulin from bovine brain was purified to homogeneity using Phenyl-Sepharose (Pharmacia) chromatography; from tissue; host or cells: bovine brain
Kind of data set: Anti-calmodulin activity assay: calmodulin-induced PFK inactivation. It is filed as biochemical, bovine. The note with it: drug 20 M; for Effect on calmodulin induced PFK inactivation: Activity (U mg-1): PFK 1.2 M protomers, calmodulin 3 M, 60 min, without calmodulin 66.6 U mg-1, with calmodulin 8.0 U mg-1; for Anti-calmodulin activity: Efficiency (%): calculated from the activity data (100% = PFK without calmodulin, 0% = PFK with calmodulin). The source says: The numerous antimitotic drugs already developed and therapeu- tically used for a large number of pathologies belong to different classes based on their chemical structure and other distinctive features. Antimitotic drugs usually target the tubulin/microtubule network of the cytoskeleton that is formed by assembly of cyto- plasmic tubulin dimers. The stability of the different microtubular structures varies considerably; some of their functions depend on their lability. The lability is augmented by the extreme sensitivity to various drugs. Several synthetic and natural compounds interact specifically with tubulin and/or microtubule, fundamentally destroying its dynamic character and leading to cell death. […] Because of their extensive clinical use, it is important to synthesize additional agents having at least the same biological activity. […] Nevertheless, it is unclear yet how the anti-calmodulin activity of these drugs is related to their desired and undesired pharmacological effects. […] The synthesis of the KAR derivatives are presented. […] Taxol, GTP and trifluoperazine were purchased from Sigma. All organic reagents for synthesis of the new compounds were obtained from Aldrich and were of the highest grade. All other chemicals were reagent grade commercial preparations. […] Tubulin was stored in 1 M sucrose, 10 mM sodium phosphate buffer, 0.5 mM magnesium chloride and 0.1 mM GTP, pH 7.0, at -80C and dialysed against the appropriate buffer before use. […] PFK, aldolase and glycerol-3-phosphate dehydrogenase- triosephosphate isomerase purified from rabbit skeletal muscle were purchased in ammonium sulphate suspensions from Sigma or Boehringer. The enzyme suspensions were centrifuged at 10 000g for 5 min. The pellets were suspended in the appropriate buffer, then the enzymes were gel filtered or dialysed in the same buffer to remove ammonium sulphate. […] (Figure 1B; R1 , CH3; R2 , CH2 CH2 Cl). […] After 2 h incubation at room temperature, 200 ml dried toluene was added to the reaction mixture. […] The mixture was stirred for 30 min. After separation of the organic phase, it was washed with water (3 x 30 ml) and dried with potassium sulphate and evaporated on a water bath of 35-40C at 20-27 hPa. The resulting material was chromatographed on silica gel (500 g, bead size of 0.040- 0.063 mm) column (30 mm x 500 mm) using ethyl acetate/ethanol (9:1) mixture as eluent. […] The mixture was kept for 4 h at room temperature and then evaporated on a water bath at 40C under a vacuum of 80 hPa to a final volume of 5-6 ml. […] (Figure 1B, R1 , CHO; R2 , CH2 CH2 Cl). […] Synthesis of KAR-4 [3-allyl-2,4-dioxo-3,5-spiro-oxazolidino- 4-deacetoxy-vinblastine] (Figure 1B; R1 , CH3; R2 , CH2 CH=CH2 ). […] NMR measurements were carried out on a Varian Unity plus-500 instrument (500 MHz for 1H and 125 MHz for 13C) in DMSO. Chemical shifts were determined relative to dTMS = 0.00 p.p.m. 1H and 13C signal assignments were verified by a concerted use of two-dimensional 1H-1H and 1H-13C shift correlation methods (DQFCOSY, HSQC, HMBC) and NOESY experiments. The gradient-enhanced DQFCOSY, HSQC, HMBC and NOESY experiments were recorded by using the standard spectrometer software package. A mixing time of tmix = 0.5 s was used for the NOESY experiments. […] Mass spectrum was recorded on a Kratos MS 80 instrument using FAB.

Data set [1] relates to Human neuroblastoma cell line (SH-SY5Y). Kind of data set: Microculture tetrazolium assay (MTA), cytotoxicity.
From the text: as §1

Data set [2] has as its system Mouse Ehrlich ascites tumour cells. Kind of data set: In vivo anti-tumour effect on Ehrlich ascites carcinoma, single i.p. dose 4 days after transplantation.
From the text: as §1

For data set [3], the system named is Mouse leukaemia P388 cells. Kind of data set: In vivo anti-tumour effect on P388 mouse leukaemia, single i.p. dose. As to conditions: for Dose (mg kg-1) giving the maximal effect: P388, single doses i.p.; for Maximal effect T/C (%): P388, single doses i.p. 24 h after transplantation, median survival treated/control x 100, six animals per group.
From the text: as §1

For data set [4], the system named is Mouse leukaemia P388 cells. Set-up: method as in Orosz et al (1997a). The note with it: P388, single doses i.p.; data published also in ref Orosz et al (1997a); cited from earlier work.
Data set [5] has as its target Phosphofructokinase [ATP: D-fructose 6-phosphate 1-phospho-transferase, EC 2.7.1.11] from rabbit skeletal muscle (rabbit) (UniProt P00511).
[6] abbreviates: read-out: Cytotoxicity MTA IC50, 4-day treatment, MTT.
Where [7] appears, read: Table 2A, 40 mg kg-1 single dose i.p.
Setting [8] is: Table 2A, 40 mg kg-1 single dose i.p., sacrifice 8 days after implantation, control 5.33 ml.
Where [9] appears, read: Table 2B, 2 mg kg-1 single dose i.p.
The mark [10] stands for this setting: Table 2B, 5 mg kg-1 single dose i.p.
Setting [11] is: Table 2B, 10 mg kg-1 single dose i.p.

Broadly, the IC50 is the concentration needed to halve the response being measured.

Read-outs that look alike come from different tables or passages of the source.

Sequence of Phosphofructokinase [ATP: D-fructose 6-phosphate 1-phospho-transferase, EC 2.7.1.11] from rabbit skeletal muscle (rabbit) (P00511 whole entry): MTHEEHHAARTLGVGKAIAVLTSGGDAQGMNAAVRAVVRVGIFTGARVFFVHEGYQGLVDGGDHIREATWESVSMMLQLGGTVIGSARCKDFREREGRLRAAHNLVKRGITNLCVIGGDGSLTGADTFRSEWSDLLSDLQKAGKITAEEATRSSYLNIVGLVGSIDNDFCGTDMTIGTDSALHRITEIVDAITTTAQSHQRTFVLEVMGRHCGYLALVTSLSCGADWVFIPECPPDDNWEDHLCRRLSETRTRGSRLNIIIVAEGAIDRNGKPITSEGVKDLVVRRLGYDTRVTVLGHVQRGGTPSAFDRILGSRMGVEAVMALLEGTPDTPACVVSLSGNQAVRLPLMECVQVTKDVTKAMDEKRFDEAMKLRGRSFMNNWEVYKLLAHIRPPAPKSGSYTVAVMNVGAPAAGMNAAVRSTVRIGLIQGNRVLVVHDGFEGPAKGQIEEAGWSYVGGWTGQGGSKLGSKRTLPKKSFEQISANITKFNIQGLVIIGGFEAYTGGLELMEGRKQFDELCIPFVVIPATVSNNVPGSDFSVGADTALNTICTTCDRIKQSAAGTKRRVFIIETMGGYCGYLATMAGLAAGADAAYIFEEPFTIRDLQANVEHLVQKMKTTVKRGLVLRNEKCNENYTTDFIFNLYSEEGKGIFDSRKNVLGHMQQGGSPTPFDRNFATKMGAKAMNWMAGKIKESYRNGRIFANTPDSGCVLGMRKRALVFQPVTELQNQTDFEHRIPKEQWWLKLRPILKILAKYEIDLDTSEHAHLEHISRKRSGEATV

Take `CCC1(O)CC2CN(CCc3c([nH]c4ccccc34)C(C(=O)OC)(c3cc4c(cc3OC)N(C=O)C3C5(CC6(CC)C=CCN7CCC43C76)OC(=O)N(CCCl)C5=O)C2)C1` (centres unmarked) [KAR-3, 3-(-chloroethyl)-2,4-dioxo-3,5-spiro-oxazolidino-4-deacetoxy-vincristine]: in the data set with tubulin, the IC50 amounted to 136 nM. In addition, at calmodulin, the “Effect on calmodulin induced PFK inactivation: Activity (U mg-1)” value is listed as 34.4 U mg-1, the “anti-calmodulin activity in the PFK assay (in words)” value is reported as “significant anti-calmodulin potency”, the “reduction of the calmodulin-mediated inactivation of PFK” value is recorded as “about 50%” and the “Anti-calmodulin activity: Efficiency (%)” value is on record as 45%. The half-inhibitory concentration (IC50) in data set [1] (setting [6]) was 3.1e-07 M. Besides, in data set [2] (setting [7]), the “Cells ml-1 (per cent of control)” value was 57 per cent of control and the “Total cells (per cent of control)” value is given as 32 per cent of control. Besides, the “Volume of tumour per mouse” value in data set [2] (setting [8]) is 3.00 mL. Further, in data set [3], the “Dose (mg kg-1) giving the maximal effect” value stood at 20 mg/kg and the “Maximal effect T/C (%)” value is on record as 187%.

In the case of `C=CCN1C(=O)O[C@@]2(C[C@]3(CC)C=CCN4CC[C@@]5(c6cc([C@@]7(C(=O)OC)C[C@@H]8CN(CCc9c7[nH]c7ccccc97)C[C@](O)(CC)C8)c(OC)cc6N(C)[C@H]52)[C@@H]43)C1=O` [KAR-4, 3-allyl-2,4-dioxo-3,5-spiro-oxazolidino-4-deacetoxy-vinblastine], the IC50 in the data set on tubulin worked out at 185 nM. At calmodulin, the “Effect on calmodulin induced PFK inactivation: Activity (U mg-1)” value is on record as 10.9 U mg-1, the “anti-calmodulin activity in the PFK assay (in words)” value was “does not display anti-calmodulin activity” and the “Anti-calmodulin activity: Efficiency (%)” value is recorded as 5%. The half-inhibitory concentration (IC50) in data set [1] (setting [6]) amounted to 3.5e-07 M. In data set [2] (setting [7]), the “Cells ml-1 (per cent of control)” value is given as 90 per cent of control and the “Total cells (per cent of control)” value is on record as 57 per cent of control. Further, in data set [2] (setting [8]), the “Volume of tumour per mouse” value came out at 3.33 mL. Further, in data set [3], the “Dose (mg kg-1) giving the maximal effect” value was found to be 40 mg/kg and the “Maximal effect T/C (%)” value is 214%.

As for `CC[C@]1(O)C[C@H]2CN(CCc3c([nH]c4ccccc34)[C@@](C(=O)OC)(c3cc4c(cc3OC)N(C=O)[C@H]3[C@@](O)(C(=O)OC)[C@H](OC(C)=O)[C@]5(CC)C=CCN6CC[C@]43[C@@H]65)C2)C1` [Vincristine, vincristine, reference compound], the IC50 with tubulin stood at 290 nM; in data set [1] (Homo sapiens, 96 h, read-out: Cytotoxicity MTA IC50) it was 1.3e-08 M; in data set [1] (Homo sapiens, 96 h, read-out: Cytotoxicity MTA IC50 (M)), 1.3e-08 M. Further, in data set [4], the “Dose (mg kg-1) giving the maximal effect” value was 1 mg/kg. Besides, in data set [2] (15 mg kg-1 (highest dose) single dose i.p., three mice per group), the “mortality of treated animals” value is listed as “death of two of the three treated animals”. Further, the “Total cells (per cent of control)” value in data set [2] (Table 2B, 1 mg kg-1 single dose i.p.) was 57 per cent of control; in data set [2] (setting [9]) it was 60 per cent of control; in data set [2] (setting [10]), 54 per cent of control; in data set [2] (setting [11]), 45 per cent of control. The “Volume of tumour per mouse” value worked out at 2.00 mL in data set [2] (Table 2B, 1 mg kg-1 single dose i.p., control 2.67 ml); 1.50 mL in data set [2] (Table 2B, 2 mg kg-1 single dose i.p., control 2.67 ml); 0.64 mL in data set [2] (Table 2B, 5 mg kg-1 single dose i.p., control 2.67 ml); 0.53 mL in data set [2] (Table 2B, 10 mg kg-1 single dose i.p., control 2.67 ml). Moreover, the “Cells ml-1 (per cent of control)” value in data set [2] (setting [9]) is 106 per cent of control; in data set [2] (setting [10]), 225 per cent of control; in data set [2] (setting [11]), 224 per cent of control. Moreover, the “maximum dose that did not result in the death of the animals” value in data set [2] (single dose i.p., Ehrlich ascites mice) was determined as 10 mg/kg.

As to “Calmodulin from bovine brain (from UniProt P62157 1-149) (natural protein)”, in data set [5], the PFK activity after 60 min incubation with calmodulin and KAR-2 (calmodulin induced PFK inactivation) turned out to be 11.1 U mg-1; the PFK activity after 60 min incubation with calmodulin and KAR-3 (calmodulin induced PFK inactivation) amounted to 34.4 U mg-1; the PFK activity after 60 min incubation with calmodulin and KAR-4 (calmodulin induced PFK inactivation) is 10.9 U mg-1; the PFK activity after 60 min incubation with calmodulin and trifluoperazine (calmodulin induced PFK inactivation) came to 46.1 U mg-1. In data set [5], this molecule came in with an efficiency of KAR-2 in suspending the calmodulin induced PFK inactivation of 5%, an efficiency of KAR-3 in suspending the calmodulin induced PFK inactivation of 45%, an efficiency of KAR-4 in suspending the calmodulin induced PFK inactivation of 5% and an efficiency of trifluoperazine in suspending the calmodulin induced PFK inactivation of 65%. This molecule also showed a residual PFK activity after 60 min incubation with calmodulin, no drug (66.6 U mg-1 without calmodulin) in data set [5] of 8 U mg-1.
